# Article PMC11822212, “High-throughput screening identifies Aurora kinase B as a critical therapeutic target for Merkel cell carcinoma” (Nature Communications, 2025)
# Columns and labels:
# Format in all cases: cell-based, human
# MKL-2 cells (VP-MCC) = assay: qHTS cell viability (CellTiter-Glo, 72 h; primary and follow-up small molecule screen); conditions: for Percent viability: MKL2, 72h
# UISO cells (VN-MCC) = assay: as above; conditions: for Percent viability: UISO, 72h
# MKL-1 cells (VP-MCC) = assay: as above; conditions: for Percent viability: MKL1, 72h
# [1] = system: VP-MCC cell lines (WAGA, MKL-1, MKL-2); assay: qHTS cell viability, VP-MCC cell lines as a group (mean AUC, VP.MCC.avg); conditions: re-tested in triplicate, follow-up screen
# MCC26 cells (VN-MCC) = assay: qHTS cell viability (CellTiter-Glo, 72 h; primary and follow-up small molecule screen); conditions: for Percent viability: MCC26, 72h
# MCC13 cells (VN-MCC) = assay: as above; conditions: for Percent viability: MCC13, 72h
# WAGA cells (VP-MCC) = assay: as above; conditions: for Percent viability: WAGA, 72h
compound,measurement,setting,value
"O=C(Nc1cccc(Cl)c1)Nc1ncc(CCNc2ncnc3ccsc23)s1 [SNS-314, reference compound]",Percent viability,MKL-2 cells (VP-MCC); Log (M) -5.33646,20.8%
same,Percent viability,MKL-2 cells (VP-MCC); Log (M) -5.81358,47.8%
same,Percent viability,MKL-2 cells (VP-MCC); Log (M) -6.2907,56.2%
same,Percent viability,MKL-2 cells (VP-MCC); Log (M) -6.76782,47.9%
same,Percent viability,MKL-2 cells (VP-MCC); Log (M) -7.24494,43.4%
same,Percent viability,MKL-2 cells (VP-MCC); Log (M) -7.72207,52.1%
same,Percent viability,MKL-2 cells (VP-MCC); Log (M) -8.19919,55.1%
same,Percent viability,MKL-2 cells (VP-MCC); Log (M) -8.67631,62.3%
same,Percent viability,MKL-2 cells (VP-MCC); Log (M) -9.15343,100.0%
same,Percent viability,MKL-2 cells (VP-MCC); Log (M) -9.63055,104.9%
same,Percent viability,MKL-2 cells (VP-MCC); Log (M) -10.1077,91.4%
same,Percent viability,UISO cells (VN-MCC); Log (M) -5.33646,21.7%
same,Percent viability,UISO cells (VN-MCC); Log (M) -5.81358,56.9%
same,Percent viability,UISO cells (VN-MCC); Log (M) -6.2907,70.9%
same,Percent viability,UISO cells (VN-MCC); Log (M) -6.76782,75.0%
same,Percent viability,UISO cells (VN-MCC); Log (M) -7.24494,93.3%
same,Percent viability,UISO cells (VN-MCC); Log (M) -7.72207,86.0%
same,Percent viability,UISO cells (VN-MCC); Log (M) -8.19919,89.1%
same,Percent viability,UISO cells (VN-MCC); Log (M) -8.67631,101.5%
same,Percent viability,UISO cells (VN-MCC); Log (M) -9.15343,108.7%
same,Percent viability,UISO cells (VN-MCC); Log (M) -9.63055,96.8%
same,Percent viability,UISO cells (VN-MCC); Log (M) -10.1077,98.0%
same,Percent viability,MKL-1 cells (VP-MCC); Log (M) -5.33646,37.7%
same,Percent viability,MKL-1 cells (VP-MCC); Log (M) -5.81358,37.4%
same,Percent viability,MKL-1 cells (VP-MCC); Log (M) -6.2907,42.7%
same,Percent viability,MKL-1 cells (VP-MCC); Log (M) -6.76782,49.2%
same,Percent viability,MKL-1 cells (VP-MCC); Log (M) -7.24494,26.9%
same,Percent viability,MKL-1 cells (VP-MCC); Log (M) -7.72207,28.2%
same,Percent viability,MKL-1 cells (VP-MCC); Log (M) -8.19919,56.1%
same,Percent viability,MKL-1 cells (VP-MCC); Log (M) -8.67631,100.9%
same,Percent viability,MKL-1 cells (VP-MCC); Log (M) -9.15343,107.4%
same,Percent viability,MKL-1 cells (VP-MCC); Log (M) -9.63055,103.4%
same,Percent viability,MKL-1 cells (VP-MCC); Log (M) -10.1077,99.7%
same,VP-MCC viability (in words),[1],consistently and potently reduced VP-MCC viability
same,Percent viability,MCC26 cells (VN-MCC); Log (M) -5.33646,72.0%
same,Percent viability,MCC26 cells (VN-MCC); Log (M) -5.81358,84.0%
same,Percent viability,MCC26 cells (VN-MCC); Log (M) -6.2907,86.8%
same,Percent viability,MCC26 cells (VN-MCC); Log (M) -6.76782,90.3%
same,Percent viability,MCC26 cells (VN-MCC); Log (M) -7.24494,93.9%
same,Percent viability,MCC26 cells (VN-MCC); Log (M) -7.72207,97.6%
same,Percent viability,MCC26 cells (VN-MCC); Log (M) -8.19919,94.0%
same,Percent viability,MCC26 cells (VN-MCC); Log (M) -8.67631,99.1%
same,Percent viability,MCC26 cells (VN-MCC); Log (M) -9.15343,95.5%
same,Percent viability,MCC26 cells (VN-MCC); Log (M) -9.63055,91.7%
same,Percent viability,MCC26 cells (VN-MCC); Log (M) -10.1077,91.9%
same,Percent viability,MCC13 cells (VN-MCC); Log (M) -5.33646,49.0%
same,Percent viability,MCC13 cells (VN-MCC); Log (M) -5.81358,56.7%
same,Percent viability,MCC13 cells (VN-MCC); Log (M) -6.2907,82.7%
same,Percent viability,MCC13 cells (VN-MCC); Log (M) -6.76782,93.1%
same,Percent viability,MCC13 cells (VN-MCC); Log (M) -7.24494,90.9%
same,Percent viability,MCC13 cells (VN-MCC); Log (M) -7.72207,100.8%
same,Percent viability,MCC13 cells (VN-MCC); Log (M) -8.19919,94.5%
same,Percent viability,MCC13 cells (VN-MCC); Log (M) -8.67631,106.6%
same,Percent viability,MCC13 cells (VN-MCC); Log (M) -9.15343,125.4%
same,Percent viability,MCC13 cells (VN-MCC); Log (M) -9.63055,116.5%
same,Percent viability,MCC13 cells (VN-MCC); Log (M) -10.1077,92.5%
same,Percent viability,WAGA cells (VP-MCC); Log (M) -5.33646,42.9%
same,Percent viability,WAGA cells (VP-MCC); Log (M) -5.81358,32.8%
same,Percent viability,WAGA cells (VP-MCC); Log (M) -6.2907,39.2%
same,Percent viability,WAGA cells (VP-MCC); Log (M) -6.76782,41.9%
same,Percent viability,WAGA cells (VP-MCC); Log (M) -7.24494,24.7%
same,Percent viability,WAGA cells (VP-MCC); Log (M) -7.72207,26.4%
same,Percent viability,WAGA cells (VP-MCC); Log (M) -8.19919,38.2%
same,Percent viability,WAGA cells (VP-MCC); Log (M) -8.67631,100.0%
same,Percent viability,WAGA cells (VP-MCC); Log (M) -9.15343,100.0%
same,Percent viability,WAGA cells (VP-MCC); Log (M) -9.63055,102.6%
same,Percent viability,WAGA cells (VP-MCC); Log (M) -10.1077,100.0%
SP-600125,Area under the dose-response curve (AUC) MKL-2 Replicate 1,MKL-2 cells (VP-MCC),447.3
same,Area under the dose-response curve (AUC) MKL-2 Replicate 2,MKL-2 cells (VP-MCC),464.7
same,Area under the dose-response curve (AUC) MKL-2 Replicate 3,MKL-2 cells (VP-MCC),498.4
same,Area under the dose-response curve (AUC) UISO Replicate 1,UISO cells (VN-MCC),425.2
same,Area under the dose-response curve (AUC) UISO Replicate 2,UISO cells (VN-MCC),449.0
same,Area under the dose-response curve (AUC) UISO Replicate 3,UISO cells (VN-MCC),462.0
same,Area under the dose-response curve (AUC) MKL-1 Replicate 1,MKL-1 cells (VP-MCC),472.9
same,Area under the dose-response curve (AUC) MKL-1 Replicate 2,MKL-1 cells (VP-MCC),491.9
same,Area under the dose-response curve (AUC) MKL-1 Replicate 3,MKL-1 cells (VP-MCC),491.6
same,Area under the dose-response curve (AUC) MCC26 Replicate 1,MCC26 cells (VN-MCC),435.5
same,Area under the dose-response curve (AUC) MCC26 Replicate 2,MCC26 cells (VN-MCC),426.6
same,Area under the dose-response curve (AUC) MCC26 Replicate 3,MCC26 cells (VN-MCC),458.4
same,Area under the dose-response curve (AUC) MCC13 Replicate 1,MCC13 cells (VN-MCC),457.8
same,Area under the dose-response curve (AUC) MCC13 Replicate 2,MCC13 cells (VN-MCC),483.0
same,Area under the dose-response curve (AUC) MCC13 Replicate 3,MCC13 cells (VN-MCC),492.5
same,Area under the dose-response curve (AUC) WAGA Replicate 1,WAGA cells (VP-MCC),479.2
same,Area under the dose-response curve (AUC) WAGA Replicate 2,WAGA cells (VP-MCC),486.5
same,Area under the dose-response curve (AUC) WAGA Replicate 3,WAGA cells (VP-MCC),468.4
